Results as given in patent US12180226B2, “Spirotricycle RIPK1 inhibitors and methods of uses thereof” (Merck Sharp & Dohme LLC, priority 2021, dated 2024).
Counter-ions that a name gives are not always drawn.

Target: RIPK1 (recombinant GST-RIPK1 kinase domain, residues 1-327) (Homo sapiens (Human), UniProt Q13546)
Experiment: RIPK1-ADP-Glo Enzymatic Assay
Format: biochemical
Settings: ADP-Glo; 25 nM GST-RIPK1, 300 μM ATP; assay lower limit ~25 nM; read-out: RIPK1 V0 Ec50
Method in brief: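 GST-tagged kinase domain (residues 1-327, Sf21-expressed), 25 nM, pre-incubated 30 min with compound at ambient temperature, then reacted 150 min with 300 μM ATP and 3 μM dephosphorylated MBP in HEPES pH 7.3 buffer. ADP measured by ADP-Glo luminescence; EC50 from ten-point titration (top 100000 nM), four-parameter fit.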

Sequence of RIPK1 (recombinant GST-RIPK1 kinase domain, residues 1-327) (Q13546 1-327): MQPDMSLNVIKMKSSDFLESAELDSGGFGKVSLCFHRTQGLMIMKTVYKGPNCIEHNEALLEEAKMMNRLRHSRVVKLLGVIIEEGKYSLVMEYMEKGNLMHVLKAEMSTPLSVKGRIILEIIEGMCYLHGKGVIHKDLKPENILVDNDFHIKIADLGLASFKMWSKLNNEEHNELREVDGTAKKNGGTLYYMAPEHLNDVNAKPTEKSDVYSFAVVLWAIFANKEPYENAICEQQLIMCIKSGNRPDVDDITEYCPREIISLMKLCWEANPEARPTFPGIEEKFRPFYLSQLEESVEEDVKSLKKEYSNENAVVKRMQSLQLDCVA

Row | EC50 [µM] | Structure (SMILES)
1 | < 0.025 | O=C(c1cccc(-c2nnco2)c1)N1CCC2(CC1)O[C@@H]1CC[C@@H](c3cc(F)cc(F)c3)N1C2=O [Example 6.64, (5′S,7a′R)-5′-(3,5-difluorophenyl)-1-[3-(1,3,4-oxadiazol-2-yl)benzene-1-carbon-yl]tetrahydro-3′H-spiro[piperidine-4,2′-pyrrolo[2,1-b][1,3]-oxazol]-3′-one]
2 | < 0.025 | COc1cccc(C(=O)N2CCC3(CC2)O[C@@H]2CC[C@@H](c4cccc(F)c4)N2C3=O)c1 [Example 6.117, (5′S,7a′R)-5′-(3-fluorophenyl)-1-(3-methoxybenzene-1-carbonyl)tetrahydro-3′H-spiro[piperidine-4,2′-pyrrolo[2,1-b] [1,3]oxazol]-3′-one]
3 | 0.0374 | CSc1nc(C)cc(N2CCC3(CC2)O[C@@H]2CC[C@@H](c4ccccc4)N2C3=O)n1 [Example 4.36, (5′S,7a′R)-1-[6-methyl-2-(methylsulfanyl)pyrimidin-4-yl]-5′-phenyltetrahydro-3′H-spiro[piperidine-4,2′-pyrrolo[2,1-b] [1,3]oxazol]-3′-one]
4 | 0.0252 | O=C1N2[C@@H](CC[C@H]2c2ccccc2)OC12CCN(c1ncc(-c3nccs3)cn1)CC2 [Example 21.12, (5′S,7a′R)-5′-phenyl-1-[5-(1,3-thiazol-2-yl)pyrimidin-2-yl]tetrahydro-3′H-spiro[piperidine-4,2′-pyrrolo[2,1-b][1,3]oxazol]-3′-one]
5 | 0.328 | N#Cc1ccccc1C(=O)N1CCC2(CC1)O[C@@H]1CC[C@@H](c3ccccc3)N1C2=O [Example 6.147, 2-[(5′S,7a′R)-3′-oxo-5′-phenyltetrahydro-1H,3′H-spiro[piperi-dine-4,2′-pyrrolo[2,1-b][1,3]oxazole]-1-carbonyl]benzonitrile]
6 | < 0.025 | N#Cc1ccc(N2CCC3(CC2)O[C@@H]2CC[C@@H](c4cc(F)cc(F)c4)N2C3=O)nc1 [Example 4.44, 6-[(5′S,7a′R)-5′-(3,5-difluorophenyl)-3′-oxotetrahydro-1H,3′H-spiro[piperidine-4,2′-pyrrolo[2,1-b] [1,3]oxazol]-1-yl]pyridine-3-carbonitrile]
7 | 0.0363 | O=C1N2[C@@H](CC[C@H]2c2ccccc2)OC12CCN(c1ncnc3ccnn13)CC2F (single isomer, unassigned) [Example 4.98, (3[S or R],4[R or S], 5′S,7a′R)-3-fluoro-5′-phenyl-1-(pyrazolo [1,5-a][1,3,5]triazin-4-yl)tetrahydro-3′H-spiro[piperidine-4,2′-pyrrolo[2,1-b]oxazol]-3′-one]
8 | 0.0692 | CCOC(=O)c1coc(-c2ccnc(N3CCC4(CC3)O[C@@H]3CC[C@@H](c5ccccc5)N3C4=O)c2)n1 [Example 4.173, ethyl 2-{2-[(5′S,7a′R)-3′-oxo-5′-phenyltetrahydro-1H,3′H-spiro[piperidine-4,2′-pyrrolo[2,1-b] [1,3]oxazol]-1-yl]pyridin-4-yl}-1,3-oxazole-4-carboxylate]
9 | < 0.025 | O=C1N2[C@@H](CC[C@H]2c2ccccc2)SC12CCN(c1ccnc3ccnn13)CC2 [Example 4.116, (5′S,7a′R)-5′-phenyl-1-(pyrazolo[1,5-a]pyrimidin-7-yl)tetrahydro-3′H-spiro[piperidine-4,2′-pyrrolo[2,1-b]thiazol]-3′-one]
10 | < 0.025 | Cc1cccc(C(=O)N2CCC3(CC2)O[C@@H]2CC[C@@H](c4ccccc4)N2C3=O)c1F [Example 6.157, (5′S,7a′R)-1-(2-fluoro-3-methylbenzene-1-carbonyl)-5′-phenyl-tetrahydro-3′H-spiro [piperidine-4,2′-pyrrolo[2,1-b][1,3]-oxazol]-3′-one]
11 | < 0.025 | N#Cc1cc(C(=O)N2CCC3(CC2)O[C@@H]2CC[C@@H](c4ccccc4)N2C3=O)ccc1F [Example 6.138, 2-fluoro-5-[(5′S,7a′R)-3′-oxo-5′-phenyl-tetrahydro-1H,3′H-spiro[piperidine-4,2′-pyrrolo[2,1-b][1,3]-oxazole]-1-carbonyl]-benzonitrile]
12 | 0.0807 | COc1cnc(N2CCC3(CC2)O[C@@H]2CC[C@@H](c4cc(F)cc(F)c4)N2C3=O)nc1 [Example 4.64, (5′S,7a′R)-5′-(3,5-difluorophenyl)-1-(5-methoxypyrimidin-2-yl)tetrahydro-3′H-spiro[piperidine-4,2′-pyrrolo[2,1-b] [1,3]oxazol]-3′-one]
13 | < 0.025 | COc1cc(C(=O)N2CCC3(CC2)O[C@@H]2CC[C@@H](c4ccccc4)N2C3=O)ccc1F [Example 6.158, (5′S,7a′R)-1-(4-fluoro-3-methoxybenzene-1-carbonyl)-5′-phenyl-tetrahydro-3′H-spiro [piperidine-4,2′-pyrrolo[2,1-b][1,3]oxazol]-3′-one]
14 | < 0.025 | N#Cc1ccc(N2CCC3(O[C@@H]4CC[C@@H](c5ccccc5)N4C3=O)C(F)C2)n2ncnc12 (stereo partly drawn) [Example 4.258, 5-[(5′S,7a′R)-3-fluoro-3′-oxo-5′-phenyltetrahydro-1H,3′H-spiro[piperidine-4,2′-pyrrolo[2,1-b] [1,3]oxazol]-1-yl][1,2,4]triazolo[1,5-a] pyridine-8-carbonitrile]
15 | < 0.025 | COC(=O)c1cnc(N2CCC3(CC2)O[C@@H]2CC[C@@H](c4ccccc4)N2C3=O)cc1Cl [Example 4.211, methyl 4-chloro-6-[(5′S,7a′R)-3′-oxo-5′-phenyltetrahydro-1H,3′H-spiro[piperidine-4,2′-pyrrolo[2,1-b] [1,3]oxazol]-1-yl]pyridine-3-carboxylate]
16 | 0.0578 | O=C1N2[C@@H](CC[C@H]2c2ccccc2)OC12CCN(c1cnc(-c3ncco3)cn1)CC2 [Example 21.14, (5′S,7a′R)-1-[5-(1,3-oxazol-2-yl)pyrazin-2-yl]-5′-phenyltetrahydro-3′H-spiro[piperidine-4,2′-pyrrolo[2,1-b][1,3]oxazol]-3′-one]
17 | < 0.025 | O=C1N2[C@@H](CC[C@H]2c2ccccc2)OC12CCN(c1ncnc3ccnn13)CC2 [Example 4.93, (5′S,7a′R)-5′-phenyl-1-(pyrazolo[1,5-a] [1,3,5]triazin-4-yl)tetrahydro-3′H-spiro[piperidine-4,2′-pyrrolo[2,1-b]oxazol]-3′-one, TFA salt]
18 | 0.624 | O=C1N2[C@@H](CC[C@H]2c2ccccc2)OC12CCN(c1ccc(C3CC3)cn1)CC2 [Example 11.19, (5′S,7a′R)-1-(5-cyclopropylpyridin-2-yl)-5′-phenyltetrahydro-3′H-spiro[piperidine-4,2′-pyrrolo[2,1-b][1,3]oxazol]-3′-one]
19 | < 0.025 | O=C1N2[C@@H](CC[C@H]2c2ccccc2)OC12CCN(c1ccnc3c(F)cnn13)CC2 [Example 4.1, (5′S,7a′R)-1-(3-fluoropyrazolo[1,5-a]pyrimidin-7-yl)-5′-phenyltetrahydro-3′H-spiro[piperidine-4,2′-pyrrolo[2,1-b]oxazol]-3′-one]
20 | 0.0251 | COc1cccc(C(=O)N2CCC3(CC2)O[C@@H]2CC[C@@H](c4cc(F)cc(F)c4)N2C3=O)n1 [Example 6.12, (5′S,7a′R)-5′-(3,5-difluorophenyl)-1-(6-methoxypyridine-2-carbonyl)tetrahydro-3′H-spiro[piperidine-4,2′-pyrrolo[2,1-b] [1,3]oxazol]-3′-one]
21 | 0.166 | O=C1N2[C@@H](CC[C@H]2c2ccccc2)OC12CCN(c1cc(F)c(O)cn1)CC2 [Example 4.209, (5′S,7a′R)-1-(4-fluoro-5-hydroxypyridin-2-yl)-5′-phenyltetrahydro-3′H-spiro[piperidine-4,2′-pyrrolo[2,1-b] [1,3]oxazol]-3′-one]
22 | < 0.025 | O=C(c1cccc(Cl)c1F)N1CCC2(CC1)O[C@@H]1CC[C@@H](c3cc(F)cc(F)c3)N1C2=O [Example 5.60, (5′S,7a′R)-1-(3-chloro-2-fluorobenzoyl)-5′-(3,5-difluorophenyl)tetrahydro-3′H-spiro[piperidine-4,2′-pyrrolo[2,1-b]oxazol]-3′-one]
23 | 0.0276 | O=C1N2[C@@H](CC[C@H]2c2ccccc2)OC12CCN(c1ccc(C3COC3)c3ccnn13)CC2 [Example 18.2, (5′S,7a′R)-1-[4-(oxetan-3-yl)pyrazolo[1,5-a]pyridin-7-yl]-5′-phenyltetrahydro-3′H-spiro[piperidine-4,2′-pyrrolo[2,1-b][1,3]oxazol]-3′-one]
24 | < 0.025 | C#Cc1ccc(N2CCC3(CC2)O[C@@H]2CC[C@@H](c4ccccc4)N2C3=O)n2ncnc12 [Example 21.24, (5′S,7a′R)-1-(8-ethynyl[1,2,4]triazolo [1,5-a]pyridin-5-yl)-5′-phenyltetrahydro-3′H-spiro[piperidine-4,2′-pyrrolo[2,1-b][1,3]oxazol]-3′-one]
25 | 0.524 | O=C(c1cc2n(n1)CCCC2)N1CCC2(CC1)O[C@@H]1CC[C@@H](c3cc(F)cc(F)c3)N1C2=O [Example 5.75, (5′S,7a′R)-5′-(3,5-difluoro-phenyl)-1-(4,5,6,7-tetra-hydropyrazolo[1,5-a]-pyridine-2-carbonyl)tetra-hydro-3′H-spiro[piperi-dine-4,2′-pyrrolo[2,1-b]oxazol]-3′-one]
26 | 0.826 | CC1CC2(CCN1C(=O)c1ncccc1F)O[C@@H]1CC[C@@H](c3cccc(F)c3)N1C2=O (stereo partly drawn) [Example 6.159, (4R,5′S,7a′R)-5′-(3-fluorophenyl)-1-(3-fluoropyridine-2-carbonyl)-2-methyl-tetrahydro-3′H-spiro [piperidine-4,2′-pyrrolo[2,1-b][1,3]oxazol]-3′-one]
27 | 0.0781 | O=C(c1csnn1)N1CCC2(CC1)O[C@@H]1CC[C@@H](c3cc(F)cc(F)c3)N1C2=O [Example 5.49, (5′S,7a′R)-5′-(3,5-difluoro-phenyl)-1-(1,2,3-thiadi-azole-4-carbonyl)tetra-hydro-3′H-spiro[piperidine-4,2′-pyrrolo[2,1-b]oxazol]-3′-one]
28 | 0.281 | Cc1cncc(C(=O)N2CCC3(CC2)O[C@@H]2CC[C@@H](c4cc(F)cc(F)c4)N2C3=O)c1 [Example 6.59, (5′S,7a′R)-5'-(3,5-difluorophenyl)-1-(5-methylpyridine-3-carbonyl)tetrahydro-3′H-spiro[piperidine-4,2′-pyrrolo[2,1-b] [1,3]oxazol]-3′-one]
